{
  "source": "patent US7579326B2",
  "about": "“Gene switch systems employing regulators with decreased dimerization” (Genetronics, Inc., priority 2000, dated 2009)",
  "origin": "cited, not measured here",
  "key": {"[1]": {"settings": "rats"}, "[2]": {"biological_target": "palindromic 17-mer GAL-4 DNA binding site"}},
  "data": [
    {"compound": "CC#C[C@]1(O)CC[C@H]2[C@@H]3CCC4=CC(=O)CCC4=C3[C@@H](c3ccc(N(C)C)cc3)C[C@@]21C", "note": "[MFP, 11β-(4-dimethylaminophenyl)-17β-hydroxy-17α-propynyl-4,9-estradiene-3-one]", "values": [
      {"measurement": "half-life", "setting": "[1]", "value": 1, "unit": "h"}
    ]},
    {"compound": "GAL-4, residues 1-100: yeast GAL-4 DNA binding domain fragment, residues 1-100", "values": [
      {"measurement": "Kd", "setting": "[2]", "value": 3, "unit": "nM"}
    ]}
  ]
}
